Measured values as given in the OligoGym collection.
Oligonucleotides are written 5' to 3', each unit as a sugar letter and its base; * is a phosphorothioate linkage, no mark a phosphodiester; rarer units and linkages stand in square brackets, end groups in braces. Plain capitals give the bases only. d = 2'-deoxy (DNA); r = 2'-OH (RNA)

target: UBE2T; experiment: reporter assay of Huesken 2005; settings: siRNA
Also: test concentration or dose not given here.

Q: How did the normalised inhibition (eCFP-eYFP dual reporter) turn out when “sense rUrGrGrUrGrArCrUrCrCrArGrArGrUrArCrArCdTdT / antisense rGrUrGrUrArCrUrCrUrGrGrArGrUrCrArCrCrAdGdC” was run?
A: The normalised inhibition (eCFP-eYFP dual reporter) was 80.3%.

Q: “sense rUrGrUrUrCrUrCrArArArUrUrGrCrCrArCrCrAdTdT / antisense rUrGrGrUrGrGrCrArArUrUrUrGrArGrArArCrAdTdC” was tested. Which normalised inhibition (eCFP-eYFP dual reporter) did it give?
A: The normalised inhibition (eCFP-eYFP dual reporter) was 53.3%.

Q: With “sense rUrGrUrUrGrGrCrArArGrArUrArArArGrArCrCdTdT / antisense rGrGrUrCrUrUrUrArUrCrUrUrGrCrCrArArCrAdTdG” as the substance, how does the normalised inhibition (eCFP-eYFP dual reporter) read?
A: The normalised inhibition (eCFP-eYFP dual reporter) was 75.8%.

Q: With “sense rUrUrArArGrCrUrArGrArArGrUrUrArUrCrArUdTdT / antisense rArUrGrArUrArArCrUrUrCrUrArGrCrUrUrArAdAdA” as the substance, how does the normalised inhibition (eCFP-eYFP dual reporter) read?
A: The normalised inhibition (eCFP-eYFP dual reporter) was 89.9%.

Q: Which normalised inhibition (eCFP-eYFP dual reporter) does the source give for “sense rUrUrGrArArCrCrUrCrCrUrCrArGrArUrCrCrGdTdT / antisense rCrGrGrArUrCrUrGrArGrGrArGrGrUrUrCrArAdAdT” here?
A: Its normalised inhibition (eCFP-eYFP dual reporter) is 56.5%.

Q: “sense rUrUrGrArCrCrUrCrUrArUrUrCrArGrCrUrGrCdTdT / antisense rGrCrArGrCrUrGrArArUrArGrArGrGrUrCrArAdCdA” was tested. Which normalised inhibition (eCFP-eYFP dual reporter) did it give?
A: Its normalised inhibition (eCFP-eYFP dual reporter) is 49.2%.

target: P2rx2 (rat); experiment: reporter assay of Huesken 2005; settings: siRNA

Q: How did the normalised inhibition (eCFP-eYFP dual reporter) turn out when “sense rArArArGrUrCrArArGrGrGrGrArUrCrArCrCrAdTdT / antisense rUrGrGrUrGrArUrCrCrCrCrUrUrGrArCrUrUrUdGdG” was run?
A: The normalised inhibition (eCFP-eYFP dual reporter) was 66.2%.

Q: Which normalised inhibition (eCFP-eYFP dual reporter) does the source give for “sense rArArArUrUrUrCrArCrCrArUrCrCrUrCrArUrCdTdT / antisense rGrArUrGrArGrGrArUrGrGrUrGrArArArUrUrUdGdG” here?
A: Its normalised inhibition (eCFP-eYFP dual reporter) is 23.6%.

Q: “sense rArArCrArArGrCrUrCrUrArCrArGrCrCrArUrAdTdT / antisense rUrArUrGrGrCrUrGrUrArGrArGrCrUrUrGrUrUdTdT” was tested. Which normalised inhibition (eCFP-eYFP dual reporter) did it give?
A: Its normalised inhibition (eCFP-eYFP dual reporter) is 76.6%.

Q: For “sense rArArCrUrGrUrGrArCrCrUrGrGrArCrUrUrGrUdTdT / antisense rArCrArArGrUrCrCrArGrGrUrCrArCrArGrUrUdCdC”, which normalised inhibition (eCFP-eYFP dual reporter) is on record?
A: Its normalised inhibition (eCFP-eYFP dual reporter) is 38.6%.

Q: “sense rArArGrCrCrUrArUrGrGrGrArUrUrCrGrArArUdTdT / antisense rArUrUrCrGrArArUrCrCrCrArUrArGrGrCrUrUdTdG” was tested. Which normalised inhibition (eCFP-eYFP dual reporter) did it give?
A: The normalised inhibition (eCFP-eYFP dual reporter) was 76%.

Q: For “sense rArCrArArGrArUrArArArCrGrGrCrArCrUrArCdTdT / antisense rGrUrArGrUrGrCrCrGrUrUrUrArUrCrUrUrGrUdAdA”, which normalised inhibition (eCFP-eYFP dual reporter) is on record?
A: Its normalised inhibition (eCFP-eYFP dual reporter) is 50.6%.

Q: Which normalised inhibition (eCFP-eYFP dual reporter) does the source give for “sense rArCrArGrCrUrCrUrArCrCrUrGrCrCrArUrUrCdTdT / antisense rGrArArUrGrGrCrArGrGrUrArGrArGrCrUrGrUdGdA” here?
A: Its normalised inhibition (eCFP-eYFP dual reporter) is 42.3%.

Q: With “sense rArCrCrArGrGrArCrArGrCrGrArGrArCrCrGrGdTdT / antisense rCrCrGrGrUrCrUrCrGrCrUrGrUrCrCrUrGrGrUdAdG” as the substance, how does the normalised inhibition (eCFP-eYFP dual reporter) read?
A: Its normalised inhibition (eCFP-eYFP dual reporter) is 49.5%.

Q: For “sense rArCrGrUrCrUrUrCrArUrCrGrUrGrCrArGrArAdTdT / antisense rUrUrCrUrGrCrArCrGrArUrGrArArGrArCrGrUdAdC”, which normalised inhibition (eCFP-eYFP dual reporter) is on record?
A: The normalised inhibition (eCFP-eYFP dual reporter) was 85.2%.

Q: Which normalised inhibition (eCFP-eYFP dual reporter) does the source give for “sense rArCrUrArCrCrArCrCrArCrUrCrGrArArCrUrCdTdT / antisense rGrArGrUrUrCrGrArGrUrGrGrUrGrGrUrArGrUdGdC” here?
A: The normalised inhibition (eCFP-eYFP dual reporter) was 43.6%.

Q: How did the normalised inhibition (eCFP-eYFP dual reporter) turn out when “sense rArCrUrCrCrCrArGrGrArUrCrArGrCrCrArCrCdTdT / antisense rGrGrUrGrGrCrUrGrArUrCrCrUrGrGrGrArGrUdAdG” was run?
A: The normalised inhibition (eCFP-eYFP dual reporter) was 44.7%.

Q: “sense rArCrUrUrCrUrGrArCrArArCrCrArUrUrUrUrCdTdT / antisense rGrArArArArUrGrGrUrUrGrUrCrArGrArArGrUdTdC” was tested. Which normalised inhibition (eCFP-eYFP dual reporter) did it give?
A: Its normalised inhibition (eCFP-eYFP dual reporter) is 33.5%.

Q: “sense rArGrCrArUrArUrGrGrGrArCrArArArGrArCrCdTdT / antisense rGrGrUrCrUrUrUrGrUrCrCrCrArUrArUrGrCrUdGdG” was tested. Which normalised inhibition (eCFP-eYFP dual reporter) did it give?
A: Its normalised inhibition (eCFP-eYFP dual reporter) is 53.1%.

Q: Which normalised inhibition (eCFP-eYFP dual reporter) does the source give for “sense rArGrGrArUrCrGrArGrGrUrUrArCrCrCrCrUrUdTdT / antisense rArArGrGrGrGrUrArArCrCrUrCrGrArUrCrCrUdGdG” here?
A: The normalised inhibition (eCFP-eYFP dual reporter) was 76.8%.

Q: For “sense rArGrGrCrUrGrGrGrUrUrUrCrArUrUrGrUrUrGdTdT / antisense rCrArArCrArArUrGrArArArCrCrCrArGrCrCrUdGdA”, which normalised inhibition (eCFP-eYFP dual reporter) is on record?
A: The normalised inhibition (eCFP-eYFP dual reporter) was 64.9%.

Q: Which normalised inhibition (eCFP-eYFP dual reporter) does the source give for “sense rArGrGrGrCrArCrUrGrUrGrUrArCrCrCrUrArUdTdT / antisense rArUrArGrGrGrUrArCrArCrArGrUrGrCrCrCrUdGdT” here?
A: Its normalised inhibition (eCFP-eYFP dual reporter) is 55%.

Q: How did the normalised inhibition (eCFP-eYFP dual reporter) turn out when “sense rArGrUrCrArCrUrArCrUrCrCrCrArGrGrArUrCdTdT / antisense rGrArUrCrCrUrGrGrGrArGrUrArGrUrGrArCrUdAdG” was run?
A: Its normalised inhibition (eCFP-eYFP dual reporter) is 64.6%.

Q: Which normalised inhibition (eCFP-eYFP dual reporter) does the source give for “sense rArGrUrCrArUrCrArUrCrArArCrUrGrGrArArCdTdT / antisense rGrUrUrCrCrArGrUrUrGrArUrGrArUrGrArCrUdCdC” here?
A: The normalised inhibition (eCFP-eYFP dual reporter) was 33.7%.

Q: “sense rCrArArGrGrCrArArUrGrGrGrArUrUrCrGrCrAdTdT / antisense rUrGrCrGrArArUrCrCrCrArUrUrGrCrCrUrUrGdCdA” was tested. Which normalised inhibition (eCFP-eYFP dual reporter) did it give?
A: Its normalised inhibition (eCFP-eYFP dual reporter) is 64.4%.

Q: With “sense rCrArCrCrArCrUrCrGrArArCrUrCrUrCrArUrCdTdT / antisense rGrArUrGrArGrArGrUrUrCrGrArGrUrGrGrUrGdGdT” as the substance, how does the normalised inhibition (eCFP-eYFP dual reporter) read?
A: Its normalised inhibition (eCFP-eYFP dual reporter) is 64.7%.

Q: Which normalised inhibition (eCFP-eYFP dual reporter) does the source give for “sense rCrArCrUrArCrUrCrCrCrArGrGrArUrCrArGrCdTdT / antisense rGrCrUrGrArUrCrCrUrGrGrGrArGrUrArGrUrGdAdC” here?
A: Its normalised inhibition (eCFP-eYFP dual reporter) is 46.4%.

Q: How did the normalised inhibition (eCFP-eYFP dual reporter) turn out when “sense rCrArGrCrArUrArUrGrGrGrArCrArArArGrArCdTdT / antisense rGrUrCrUrUrUrGrUrCrCrCrArUrArUrGrCrUrGdGdC” was run?
A: The normalised inhibition (eCFP-eYFP dual reporter) was 51.7%.

Q: “sense rCrArGrUrGrUrArGrUrCrArGrCrArUrCrArUrCdTdT / antisense rGrArUrGrArUrGrCrUrGrArCrUrArCrArCrUrGdCdC” was tested. Which normalised inhibition (eCFP-eYFP dual reporter) did it give?
A: The normalised inhibition (eCFP-eYFP dual reporter) was 78.4%.

Q: How did the normalised inhibition (eCFP-eYFP dual reporter) turn out when “sense rCrArUrCrArUrCrArCrCrArArArGrUrCrArArGdTdT / antisense rCrUrUrGrArCrUrUrUrGrGrUrGrArUrGrArUrGdGdA” was run?
A: The normalised inhibition (eCFP-eYFP dual reporter) was 71.5%.

Q: With “sense rCrArUrCrUrCrUrGrCrUrCrUrGrArCrUrGrArGdTdT / antisense rCrUrCrArGrUrCrArGrArGrCrArGrArGrArUrGdGdA” as the substance, how does the normalised inhibition (eCFP-eYFP dual reporter) read?
A: The normalised inhibition (eCFP-eYFP dual reporter) was 42.7%.

Q: How did the normalised inhibition (eCFP-eYFP dual reporter) turn out when “sense rCrArUrUrGrUrUrGrArGrArArGrGrCrArGrGrAdTdT / antisense rUrCrCrUrGrCrCrUrUrCrUrCrArArCrArArUrGdAdA” was run?
A: Its normalised inhibition (eCFP-eYFP dual reporter) is 61.4%.

Q: With “sense rCrCrArArGrArCrCrUrGrCrGrArGrGrUrGrUrCdTdT / antisense rGrArCrArCrCrUrCrGrCrArGrGrUrCrUrUrGrGdAdG” as the substance, how does the normalised inhibition (eCFP-eYFP dual reporter) read?
A: The normalised inhibition (eCFP-eYFP dual reporter) was 68.7%.

Q: How did the normalised inhibition (eCFP-eYFP dual reporter) turn out when “sense rCrCrGrGrArGrArGrCrUrCrCrArUrCrArUrCrAdTdT / antisense rUrGrArUrGrArUrGrGrArGrCrUrCrUrCrCrGrGdTdC” was run?
A: The normalised inhibition (eCFP-eYFP dual reporter) was 54.2%.

Q: Which normalised inhibition (eCFP-eYFP dual reporter) does the source give for “sense rCrGrGrArArGrArCrArArArGrUrGrUrGrGrGrAdTdT / antisense rUrCrCrCrArCrArCrUrUrUrGrUrCrUrUrCrCrGdAdC” here?
A: The normalised inhibition (eCFP-eYFP dual reporter) was 64.6%.

Q: Which normalised inhibition (eCFP-eYFP dual reporter) does the source give for “sense rCrGrUrGrCrArGrArArArArGrCrUrArCrCrArGdTdT / antisense rCrUrGrGrUrArGrCrUrUrUrUrCrUrGrCrArCrGdAdT” here?
A: Its normalised inhibition (eCFP-eYFP dual reporter) is 80.5%.

Q: With “sense rCrUrArCrArArCrUrUrCrArGrGrUrUrUrGrCrCdTdT / antisense rGrGrCrArArArCrCrUrGrArArGrUrUrGrUrArGdCdC” as the substance, how does the normalised inhibition (eCFP-eYFP dual reporter) read?
A: The normalised inhibition (eCFP-eYFP dual reporter) was 57%.
